The target of this assay is T1, full-length human PKCι (Homo sapiens, UniProt P41743).
T1 construct: Recombinant, full-length human PKCι expressed in Sf21 insect cells is also commercially available; purchased; host or cells: Sf21 insect cells
T1 sequence (P41743 1-596): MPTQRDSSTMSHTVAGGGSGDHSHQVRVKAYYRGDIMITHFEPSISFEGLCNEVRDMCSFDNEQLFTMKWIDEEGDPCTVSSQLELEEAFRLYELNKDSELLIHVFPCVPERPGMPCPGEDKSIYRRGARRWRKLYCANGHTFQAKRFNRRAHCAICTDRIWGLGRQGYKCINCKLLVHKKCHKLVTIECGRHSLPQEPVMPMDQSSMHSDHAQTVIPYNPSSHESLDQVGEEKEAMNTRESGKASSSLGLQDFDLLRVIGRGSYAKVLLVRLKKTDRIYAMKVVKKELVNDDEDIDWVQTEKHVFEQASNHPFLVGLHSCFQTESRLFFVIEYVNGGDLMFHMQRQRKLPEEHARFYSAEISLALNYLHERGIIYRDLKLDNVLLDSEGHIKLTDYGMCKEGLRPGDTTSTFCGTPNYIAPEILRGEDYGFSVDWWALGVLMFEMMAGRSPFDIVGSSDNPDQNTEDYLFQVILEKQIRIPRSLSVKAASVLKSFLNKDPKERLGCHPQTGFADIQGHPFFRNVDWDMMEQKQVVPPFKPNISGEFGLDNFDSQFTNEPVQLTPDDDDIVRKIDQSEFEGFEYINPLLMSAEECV
Kind of assay: PKCι IC50 IMAP assay, full-length PKCι at 150 μM ATP. It counts as biochemical. Conditions: read-out: IC50 in IMAP assay against full length PKCi at 150 μM ATP. The essentials:
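IC50 from IMAP FP (ex 485/em 530 nm) after 60 min room-temperature reaction in pH 7.5 tris buffer with 9 mM MgCl2 and 0.9 mM DTT. Enzyme: full-length Sf21-expressed PKCι (~15 pM); ATP 150 μM, five times KM^APP; FAM-labelled peptide 100 nM; DMSO 4%.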

pIC50: −log10 of the molar value. Some results are limits rather than exact numbers.

What is called pIC50 is −log10 of the IC50, conventionally taken in molar units. As to `N#Cc1ccc(Nc2cc(-c3nc(N4CCNCC4)c4c(C5CC5)cncc4n3)ccn2)cc1F` [Example 631, 4-[4-(5-Cyclopropyl-4-piperazin-1-yl-pyrido[3,4-d]pyrimidin-2-yl)-pyridin-2-ylamino]-2-fluoro-benzonitrile], the pIC50 is 6.00 to 7.00. With `FC(F)(F)Oc1ccc(Nc2cc(-c3nc(N4CCNCC4)c4c(C5CC5)cncc4n3)ccn2)cc1` [Example 2162, [4-(5-Cyclopropyl-4-piperazin-1-yl-pyrido[3,4-d]pyrimidin-2-yl)-pyridin-2-yl]-(4-trifluoromethoxy-phenyl)-amine] the figure was more than 7.00. On to `COc1cncc2nc(-c3ccnc(Nc4ccccc4C(F)(F)F)c3)nc(N3CCNCC3)c12` [Example 445, [4-(5-Methoxy-4-piperazin-1-yl-pyrido[3,4-d]pyrimidin-2-yl)-pyridin-2-yl]-(2-trifluoromethyl-phenyl)-amine], for which the pIC50 is 6.00 to 7.00. Take `Cn1ccc(Nc2cc(-c3nc(N4CCNC(C)(C)C4)c4c(C5CC5)cncc4n3)ccn2)n1` [Example 832, {4-[5-Cyclopropyl-4-(3,3-dimethyl-piperazin-1-yl)-pyrido[3,4-d]pyrimidin-2-yl]-pyridin-2-yl}-(1-methyl-1H-pyrazol-3-yl)-amine]: the pIC50 is more than 7.00. The figure for `FC(F)(F)c1ccc(Nc2cc(-c3nc(N4CCNCC4)c4c(C5CCC5)cncc4n3)ccn2)nc1` [Example 809, [4-(5-Cyclobutyl-4-piperazin-1-yl-pyrido[3,4-d]pyrimidin-2-yl)-pyridin-2-yl]-(5-trifluoromethyl-pyridin-2-yl)-amine] is more than 7.00. For the molecule `FC(F)(F)c1cc2c(-c3nc(N4CCNCC4)c4c(C5CCC5)cncc4n3)ccnc2[nH]1` [Example 2024, 5-Cyclobutyl-4-piperazin-1-yl-2-(2-trifluoromethyl-1H-pyrrolo[2,3-b]pyridin-4-yl)-pyrido[3,4-d]pyrimidine], the pIC50 is more than 7.00. With `COc1cncc2nc(-c3ccncc3)nc(N3CCNC(C(=O)NCc4ccccc4)C3)c12` (centres unmarked) [Example 157, 4-(5-Methoxy-2-pyridin-4-yl-pyrido[3,4-d]pyrimidin-4-yl)-piperazine-2-carboxylic acid benzylamide] the figure was 5.00 to 6.00. With `F[C@H]1C[C@@H](Nc2cc(-c3nc(N4CCNCC4)c4c(C5CC5)cncc4n3)ccn2)C1` [Example 703, (+/−)cis-[4-(5-Cyclopropyl-4-piperazin-1-yl-pyrido[3,4-d]pyrimidin-2-yl)-pyridin-2-yl]-(3-fluoro-cyclobutyl)-amine], the pIC50 was more than 7.00. The figure for `N[C@H](CNc1nc(-c2ccncc2)nc2c(-c3ccc4[nH]cnc4c3)nccc12)Cc1ccccc1` [Example 116, N-[(2S)-2-amino-3-phenylpropyl]-8-(1H-1,3-benzodiazol-5-yl)-2-(pyridin-4-yl)pyrido[3,4-d]pyrimidin-4-amine] is 5.00 to 6.00; for `c1cc(-c2nc(N3CCNCC3)c3c(C4CCC4)cncc3n2)c2cc(C3CCCCC3)[nH]c2n1` [Example 2153, 5-Cyclobutyl-2-(2-cyclohexyl-1H-pyrrolo[2,3-b]pyridin-4-yl)-4-piperazin-1-yl-pyrido[3,4-d]pyrimidine] it is more than 7.00.

Turning to `c1cc(-c2nc(N3CCNCC3)c3c(C4CC4)cncc3n2)cc(NC23CC(C2)C3)n1` [Example 700, Bicyclo[1.1.1]pent-1-yl-[4-(5-cyclopropyl-4-piperazin-1-yl-pyrido[3,4-d]pyrimidin-2-yl)-pyridin-2-yl]-amine], the pIC50 was more than 7.00. The figure for `Fc1cc(F)nc(Nc2cc(-c3nc(N4CCNCC4)c4c(C5CCC5)cncc4n3)ccn2)c1` [Example 2011, [4-(5-Cyclobutyl-4-piperazin-1-yl-pyrido[3,4-d]pyrimidin-2-yl)-pyridin-2-yl]-(4,6-difluoro-pyridin-2-yl)-amine] is more than 7.00; for `Fc1cc(F)c(Nc2cc(-c3nc(N4CCNCC4)c4c(C5CC5)cncc4n3)ccn2)cn1` [Example 748, [4-(5-Cyclopropyl-4-piperazin-1-yl-pyrido[3,4-d]pyrimidin-2-yl)-pyridin-2-yl]-(4,6-difluoro-pyridin-3-yl)-amine] it is more than 7.00. With `FC(F)(F)CC1CN(c2nc(-c3ccnc(Nc4ccccc4)c3)nc3cncc(C4CC4)c23)CCN1` (centres unmarked) [Example 643, [4-{5-Cyclopropyl-4-[3-(2,2,2-trifluoro-ethyl)-piperazin-1-yl]-pyrido[3,4-d]pyrimidin-2-yl}-pyridin-2-yl)-phenyl-amine] the figure was 5.00 to 6.00; with `NC(=O)N[C@H](CNc1nc(-c2ccncc2)nc2cnccc12)Cc1ccccc1` [Example 84, (1-phenyl-3-{[2-(pyridin-4-yl)pyrido[3,4-d]pyrimidin-4-yl]amino}propan-2-yl)urea], 4.40 to 5.00. With `FC(F)(F)[C@H]1CN(c2nc(-c3ccnc(Cl)c3)nc3cncc(C4CC4)c23)CCN1` [Example 660, 2-(2-Chloro-pyridin-4-yl)-5-cyclopropyl-4-((R)-3-trifluoromethyl-piperazin-1-yl)-pyrido[3,4-d]pyrimidine], the pIC50 is 4.40 to 5.00. Consider `FC(F)(F)CNc1cc(-c2nc(N3CCNCC3)c3c(C4CC4)cncc3n2)ccn1` [Example 532, [4-(5-Cyclopropyl-4-piperazin-1-yl-pyrido[3,4-d]pyrimidin-2-yl)-pyridin-2-yl]-(2,2,2-trifluoro-ethyl)-amine], for which the pIC50 was more than 7.00. The figure for `Cc1cc2c(-c3nc(N4CCNC(C(F)(F)F)C4)c4c(C5CC5)cncc4n3)ccnc2[nH]1` (centres unmarked) [Example 1215, 5-Cyclopropyl-2-(2-methyl-1H-pyrrolo[2,3-b]pyridin-4-yl)-4-(3-trifluoromethyl-piperazin-1-yl)-pyrido[3,4-d]pyrimidine] is more than 7.00.

As to `COc1cncc2nc(-c3ccnc(NC(=O)Cc4cccnc4)c3)nc(N[C@@H]3CCNC3)c12` [Example 396, N-{4-[5-Methoxy-4-((R)-pyrrolidin-3-ylamino)-pyrido[3,4-d]pyrimidin-2-yl]-pyridin-2-yl}-2-pyridin-3-yl-acetamide], the pIC50 is more than 7.00. With `CCc1cc2c(-c3nc(N4CCNCC4)c4c(OC)cncc4n3)ccnc2[nH]1` [Example 1204, 2-(2-Ethyl-1H-pyrrolo[2,3-b]pyridin-4-yl)-5methoxy-4-piperazin-1-yl-pyrido[3,4-d]pyrimidine] the figure was 6.00 to 7.00. With `FC(F)(F)c1cccc(Nc2cc(-c3nc(N4CCNCC4)c4c(C5CC5)cncc4n3)ccn2)n1` [Example 534, [4-(5-Cyclopropyl-4-piperazin-1-yl-pyrido[3,4-d]pyrimidin-2-yl)-pyridin-2-yl]-(6-trifluoromethyl-pyridin-2-yl)-amine], the pIC50 was more than 7.00. `CN(c1nc(-c2ccnc(Nc3nc(F)c(F)cc3F)c2)nc2c(Cl)ncc(C3CC3)c12)C1CCNCC1` [Example 2169, {8-Chloro-5-cyclopropyl-2-[2-(3,5,6-trifluoro-pyridin-2-ylamino)-pyridin-4-yl]-pyrido[3,4-d]pyrimidin-4-yl}-methyl-piperidin-4-yl-amine]: the pIC50 is more than 7.00. On to `FC(F)c1cc2c(-c3nc(N4CCNCC4)c4c(C5CCC5)cncc4n3)ccnc2[nH]1` [Example 2114, 5-Cyclobutyl-2-(2-difluoromethyl-1H-pyrrolo[2,3-b]pyridin-4-yl)-4-piperazin-1-yl-pyrido[3,4-d]pyrimidine], for which the pIC50 was more than 7.00.

The values above are taken from US9914730B2, “Azaquinazoline inhibitors of Atypical protein Kinase C” (Ignyta, Inc., priority 2012, dated 2018).
